PubChem BioAssay AID248 (DTP/NCI, 2004)
Values joined by “and” are separate entries in the source; they are usually repeats but may differ in a detail not shown here. Equal entries are not always repeated. Inconclusive results and toxic doses are left out. Rule as the data show it: active = T/C of 150% or more; inactive = T/C below 125%.

System: L1210 leukemia ip in BDF1 mice, survival T/C
Assay: NCI In Vivo Anticancer Drug Screen. Data for tumor model L1210 Leukemia (intraperitoneal) in B6D2F1 (BDF1) mice
Conditions: endpoint: mean survival time, higher = longer survival
How it was run: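 Ratio derived from survival: compound-dosed mice over vehicle-dosed mice, all bearing a transplantable tumor.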

[1] = dose: 100.0 mg/kg/injection, schedule: Q04DX003 (ip), vehicle: saline
[2] = dose: 200.0 mg/kg/injection, schedule: Q04DX003 (ip), vehicle: saline
[3] = dose: 400.0 mg/kg/injection, schedule: Q04DX003 (ip), vehicle: saline
[4] = dose: 100.0 mg/kg/injection, schedule: Q01DX009 (ip), vehicle: saline
[5] = dose: 200.0 mg/kg/injection, schedule: Q01DX009 (ip), vehicle: saline
[6] = dose: 400.0 mg/kg/injection, schedule: Q01DX009 (ip), vehicle: saline
[7] = dose: 100.0 mg/kg/injection, schedule: Q01DX009 (ip), vehicle: Klucel (hydroxypropylcellulose) (HPC)
[8] = dose: 100.0 mg/kg/injection, schedule: Q04DX003 (ip), vehicle: Klucel (hydroxypropylcellulose) (HPC)
[9] = dose: 200.0 mg/kg/injection, schedule: Q01DX009 (ip), vehicle: Klucel (hydroxypropylcellulose) (HPC)
[10] = dose: 200.0 mg/kg/injection, schedule: Q04DX003 (ip), vehicle: Klucel (hydroxypropylcellulose) (HPC)
[11] = dose: 400.0 mg/kg/injection, schedule: Q04DX003 (ip), vehicle: Klucel (hydroxypropylcellulose) (HPC)
[12] = dose: 100.0 mg/kg/injection, schedule: Q01DX009 (ip), vehicle: saline with Tween-80
[13] = dose: 200.0 mg/kg/injection, schedule: Q01DX009 (ip), vehicle: saline with Tween-80
[14] = dose: 100.0 mg/kg/injection, schedule: Q01DX001 (ip), vehicle: saline
[15] = dose: 200.0 mg/kg/injection, schedule: Q01DX001 (ip), vehicle: saline
[16] = dose: 100.0 mg/kg/injection, schedule: Q04DX002 (ip), vehicle: Klucel (hydroxypropylcellulose) (HPC)
[17] = dose: 200.0 mg/kg/injection, schedule: Q04DX002 (ip), vehicle: Klucel (hydroxypropylcellulose) (HPC)
[18] = dose: 400.0 mg/kg/injection, schedule: Q04DX002 (ip), vehicle: Klucel (hydroxypropylcellulose) (HPC)
[19] = dose: 100.0 mg/kg/injection, schedule: Q04DX003 (ip), vehicle: saline with Tween-80

Measured: T/C

COc1ccc2c(=O)cc(-c3ccccc3)[nH]c2c1
inactive: dose: 50.0 mg/kg/injection, schedule: Q04DX003 (ip), vehicle: saline 100 % of control | dose: 100.0 mg/kg/injection, schedule: Q01DX009 (ip), vehicle: other 122 % of control | [1] 106 % of control | dose: 200.0 mg/kg/injection, schedule: Q01DX009 (ip), vehicle: other 123 % of control | [2] 101 % of control | [3] 104 % of control

O=C1OC(/C=C/c2ccccc2)=NC/1=C\c1ccc(Cl)cc1
inactive: [4] 105 % of control | [5] 105 % of control | [6] 94 % of control

CC(=O)NCc1cccc[n+]1[O-]
inactive: dose: 25.0 mg/kg/injection, schedule: Q04DX002 (ip), vehicle: saline 110 % of control | dose: 50.0 mg/kg/injection, schedule: Q04DX002 (ip), vehicle: saline 105 % of control | dose: 100.0 mg/kg/injection, schedule: Q04DX002 (ip), vehicle: saline 101 % of control and 105 % of control

NC(=S)N/N=C\c1[nH]c(=O)nc2ccccc12
inactive: [7] 98 % of control | [8] 103 % of control | [9] 92 % of control | [10] 100 % of control | dose: 400.0 mg/kg/injection, schedule: Q01DX009 (ip), vehicle: Klucel (hydroxypropylcellulose) (HPC) 95 % of control | [11] 97 % of control

Cc1csc2ncnc(Cl)c12
inactive: dose: 25.0 mg/kg/injection, schedule: Q04DX002 (ip), vehicle: saline with Tween-80 98 % of control | dose: 50.0 mg/kg/injection, schedule: Q04DX002 (ip), vehicle: saline with Tween-80 91 % of control | dose: 100.0 mg/kg/injection, schedule: Q04DX002 (ip), vehicle: saline with Tween-80 94 % of control

O=[N+]([O-])c1ccc[nH]1
inactive: [1] 98 % of control

Cc1cc([N+](=O)[O-])ccc1NS(=O)(=O)c1ccccc1
inactive: dose: 50.0 mg/kg/injection, schedule: Q01DX009 (ip), vehicle: Klucel (hydroxypropylcellulose) (HPC) 92 % of control | [7] 95 % of control | [8] 102 % of control | [9] 95 % of control | [10] 97 % of control

CC1CC2(C)C(CC1=O)CC(C)C1C2CCC2(C)C1CCC2(C)O (configuration not stated)
inactive: [12] 90 % of control | [13] 90 % of control

CC1(C)CC(=O)c2c(OC(=O)N(CCCl)CCCl)cc(OC(=O)N(CCCl)CCCl)cc2O1
inactive: dose: 25.0 mg/kg/injection, schedule: Q04DX002 (ip), vehicle: alcohol 94 % of control | dose: 50.0 mg/kg/injection, schedule: Q04DX002 (ip), vehicle: alcohol 113 % of control | dose: 100.0 mg/kg/injection, schedule: Q04DX002 (ip), vehicle: alcohol 94 % of control | dose: 200.0 mg/kg/injection, schedule: Q04DX002 (ip), vehicle: alcohol 97 % of control | dose: 400.0 mg/kg/injection, schedule: Q04DX002 (ip), vehicle: alcohol 90 % of control

CCSc1ncnc2nc(C)[nH]c12
inactive: [14] 100 % of control | [15] 101 % of control

COc1ccc(OC)c(-n2cccc2C(=O)O)c1
inactive: [16] 90 % of control | [17] 97 % of control | [18] 93 % of control

CC1CCCC(CN=Cc2ccccc2O)[N-]1.CC1CCCC(CN=Cc2ccccc2O)[N-]1.[Ni+2] (configuration not stated)
inactive: [19] 98 % of control

C/C=C\C=N\NC(=O)C(=O)N/N=C/C=C\C
inactive: [16] 97 % of control | [17] 91 % of control | [18] 112 % of control

O=C(O)CNC(=O)c1ccc(NC(=O)CBr)cc1
inactive: dose: 50.0 mg/kg/injection, schedule: Q01DX001 (ip), vehicle: saline 104 % of control | [14] 104 % of control | [15] 109 % of control

CC/C(=C(\CC)c1ccc(OCC(=O)N2CC2)cc1)c1ccc(OCC(=O)N2CC2)cc1
inactive: dose: 2.5 mg/kg/injection, schedule: Q04DX002 (ip), vehicle: saline 101 % of control | dose: 5.0 mg/kg/injection, schedule: Q04DX002 (ip), vehicle: saline 101 % of control | dose: 10.0 mg/kg/injection, schedule: Q04DX002 (ip), vehicle: saline 105 % of control

CCN(CCO)CC1OC(OC)C2OC(C)(C)OC12 (configuration not stated)
inactive: [4] 97 % of control | [1] 98 % of control | [5] 100 % of control | [2] 95 % of control | [6] 94 % of control | [3] 96 % of control

Cc1ccc(C2OC23CC(C)(C)c2ccccc2C3=O)cc1 (configuration not stated)
inactive: [19] 93 % of control | dose: 200.0 mg/kg/injection, schedule: Q04DX003 (ip), vehicle: saline with Tween-80 96 % of control | dose: 400.0 mg/kg/injection, schedule: Q04DX003 (ip), vehicle: saline with Tween-80 93 % of control

O=C1OC(C(O)CO)C(=O)C1=O (configuration not stated)
inactive: dose: 50.0 mg/kg/injection, schedule: Q01DX009 (ip), vehicle: saline with Tween-80 97 % of control | dose: 100.0 mg/kg/injection, schedule: Q01DX001 (ip), vehicle: water 102 % of control | [12] 97 % of control | dose: 100.0 mg/kg/injection, schedule: Q01DX009 (ip), vehicle: water 105 % of control | dose: 100.0 mg/kg/injection, schedule: Q04DX003 (ip), vehicle: water 104 % of control | dose: 200.0 mg/kg/injection, schedule: Q01DX001 (ip), vehicle: water 107 % of control | [13] 101 % of control | dose: 200.0 mg/kg/injection, schedule: Q01DX009 (ip), vehicle: water 106 % of control | dose: 200.0 mg/kg/injection, schedule: Q04DX003 (ip), vehicle: water 109 % of control | dose: 400.0 mg/kg/injection, schedule: Q01DX001 (ip), vehicle: water 107 % of control | dose: 400.0 mg/kg/injection, schedule: Q01DX009 (ip), vehicle: water 116 % of control | dose: 400.0 mg/kg/injection, schedule: Q04DX003 (ip), vehicle: water 115 % of control | dose: 800.0 mg/kg/injection, schedule: Q01DX001 (ip), vehicle: water 102 % of control | dose: 800.0 mg/kg/injection, schedule: Q01DX009 (ip), vehicle: water 111 % of control | dose: 800.0 mg/kg/injection, schedule: Q04DX003 (ip), vehicle: water 121 % of control

Clc1cc(Cl)c(/C=C/c2c(Cl)cc(Cl)cc2Cl)c(Cl)c1
inactive: [8] 98 % of control | [10] 93 % of control | [11] 95 % of control

CC(=O)OCC(O)CO (configuration not stated)
inactive: [4] 102 % of control | [5] 96 % of control | [6] 102 % of control

O=C1NC2/C=C/CCCCC12 (configuration not stated)
inactive: dose: 100.0 mg/kg/injection, schedule: Q04DX003 (ip), vehicle: other 95 % of control | dose: 200.0 mg/kg/injection, schedule: Q04DX003 (ip), vehicle: other 101 % of control | dose: 400.0 mg/kg/injection, schedule: Q04DX003 (ip), vehicle: other 92 % of control

CC12CCC3C(CCC4CC(O)CCC43C)C1CCCC2=O (configuration not stated)
inactive: dose: 75.0 mg/kg/injection, schedule: Q04DX003 (sc), vehicle: steriod suspending solution 102 % of control | dose: 150.0 mg/kg/injection, schedule: Q04DX003 (sc), vehicle: steriod suspending solution 93 % of control | dose: 300.0 mg/kg/injection, schedule: Q04DX003 (sc), vehicle: steriod suspending solution 91 % of control

Cc1ccc(CN(CC(=O)O)N=O)cc1
inactive: dose: 100.0 mg/kg/injection, schedule: Q01DX Z (ip), vehicle: saline 107 % of control | dose: 200.0 mg/kg/injection, schedule: Q01DX Z (ip), vehicle: saline 100 % of control

O=CC1(C(O)C2SCCCS2)SCCCS1 (configuration not stated)
inactive: dose: 100.0 mg/kg/injection, schedule: Q01DX001 (ip), vehicle: other 113 % of control | dose: 200.0 mg/kg/injection, schedule: Q01DX001 (ip), vehicle: other 101 % of control | dose: 400.0 mg/kg/injection, schedule: Q01DX001 (ip), vehicle: other 97 % of control

CCCCCCCCCCCCCCCCCCN1CNC(=O)NC1
inactive: [8] 93 % of control | [10] 101 % of control
